{"source": "ChEMBL document CHEMBL4396887", "about": "“Five-Membered N-Heterocyclic Scaffolds as Novel Amino Bioisosteres at γ-Aminobutyric Acid (GABA) Type A Receptors and GABA Transporters” (J Med Chem, 2019)", "note": "Activity calls are given as the source filed them. The calls are words filed in the database; no cut-off is given here.", "data": [{"target": "T1, GABA-A receptor; alpha-1/beta-2/gamma-2 (Homo sapiens, UniProt P14867+P18507+P47870)", "T1 sequence (P14867 whole entry)": "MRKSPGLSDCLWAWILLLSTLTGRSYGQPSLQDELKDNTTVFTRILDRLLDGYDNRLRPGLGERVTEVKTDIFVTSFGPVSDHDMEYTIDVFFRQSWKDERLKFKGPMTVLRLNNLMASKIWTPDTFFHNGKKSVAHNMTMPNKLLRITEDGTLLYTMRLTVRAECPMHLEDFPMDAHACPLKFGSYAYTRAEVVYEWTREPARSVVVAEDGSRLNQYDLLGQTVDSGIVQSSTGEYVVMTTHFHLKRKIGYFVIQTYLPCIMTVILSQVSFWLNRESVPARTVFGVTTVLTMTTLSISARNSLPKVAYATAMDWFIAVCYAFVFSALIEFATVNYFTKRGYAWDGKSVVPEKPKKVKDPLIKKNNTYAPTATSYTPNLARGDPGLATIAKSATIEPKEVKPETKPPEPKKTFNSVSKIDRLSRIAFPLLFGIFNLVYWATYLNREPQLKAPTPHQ", "T1 sequence (P47870 whole entry)": "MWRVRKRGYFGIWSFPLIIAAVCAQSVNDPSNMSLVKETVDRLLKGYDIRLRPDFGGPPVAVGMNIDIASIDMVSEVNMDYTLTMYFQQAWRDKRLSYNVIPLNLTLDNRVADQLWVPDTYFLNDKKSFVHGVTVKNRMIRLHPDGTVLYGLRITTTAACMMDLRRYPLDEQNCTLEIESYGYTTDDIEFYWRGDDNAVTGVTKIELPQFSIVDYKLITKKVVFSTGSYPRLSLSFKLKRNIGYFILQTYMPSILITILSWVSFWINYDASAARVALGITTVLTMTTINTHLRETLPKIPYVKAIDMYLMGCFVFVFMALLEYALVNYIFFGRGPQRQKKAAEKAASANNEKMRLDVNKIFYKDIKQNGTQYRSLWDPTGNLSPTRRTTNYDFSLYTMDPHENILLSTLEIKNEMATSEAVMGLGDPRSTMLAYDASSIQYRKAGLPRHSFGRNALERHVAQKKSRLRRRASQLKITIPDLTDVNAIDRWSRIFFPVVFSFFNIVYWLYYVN", "T1 sequence (P18507 whole entry)": "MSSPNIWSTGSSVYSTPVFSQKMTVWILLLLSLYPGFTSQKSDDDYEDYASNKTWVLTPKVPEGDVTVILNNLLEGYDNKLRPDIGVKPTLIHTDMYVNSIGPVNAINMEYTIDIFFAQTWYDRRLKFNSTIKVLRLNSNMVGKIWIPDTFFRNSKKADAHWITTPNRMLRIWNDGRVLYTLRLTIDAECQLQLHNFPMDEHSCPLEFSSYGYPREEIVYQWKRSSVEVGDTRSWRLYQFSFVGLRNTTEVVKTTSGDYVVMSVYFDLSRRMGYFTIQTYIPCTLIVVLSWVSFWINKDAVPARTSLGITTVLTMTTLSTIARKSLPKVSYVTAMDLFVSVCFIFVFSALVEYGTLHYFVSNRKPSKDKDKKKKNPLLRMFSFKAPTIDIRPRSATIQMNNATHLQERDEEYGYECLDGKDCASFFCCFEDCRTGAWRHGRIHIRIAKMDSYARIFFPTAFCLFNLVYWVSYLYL", "assay": "Agonist activity at recombinant human GABA-A alpha1beta2gamma2S receptor transiently expressed in human tsA201 cells incubated for 30 mins and measured up to 90 secs by FMP dye based FLIPR membrane potential blue assay", "format": "cell-based", "conditions": "not given", "units": {"EC50": "µM"}, "values": [{"smiles": "C[C@@H](C(=O)O)[C@H]1CSC(N)=N1", "note": "(relative stereo)", "EC50": 48}, {"smiles": "CC(C(=O)O)C1CSC(N)=N1", "note": "(stereo in doubt; l-10a)", "EC50": 25}, {"smiles": "NC1=NC(CC(=O)O)CN1", "note": "(centres undefined)", "EC50": 11}, {"smiles": "O=C(O)C[C@H]1CCNC1", "EC50": 12}, {"smiles": "O=C(O)CC1CNC=N1", "note": "(centres undefined)", "EC50": 7.6}, {"smiles": "NC1=NC(CC(=O)O)CS1", "note": "(centres undefined)", "EC50": 1.8}, {"smiles": "C[C@@H](C(=O)O)[C@@H]1CSC(N)=N1", "note": "(relative stereo)", "EC50": 9.7}]}, {"target": "T2, Sodium- and chloride-dependent GABA transporter 2 (Homo sapiens, UniProt Q9NSD5)", "T2 sequence (Q9NSD5 whole entry)": "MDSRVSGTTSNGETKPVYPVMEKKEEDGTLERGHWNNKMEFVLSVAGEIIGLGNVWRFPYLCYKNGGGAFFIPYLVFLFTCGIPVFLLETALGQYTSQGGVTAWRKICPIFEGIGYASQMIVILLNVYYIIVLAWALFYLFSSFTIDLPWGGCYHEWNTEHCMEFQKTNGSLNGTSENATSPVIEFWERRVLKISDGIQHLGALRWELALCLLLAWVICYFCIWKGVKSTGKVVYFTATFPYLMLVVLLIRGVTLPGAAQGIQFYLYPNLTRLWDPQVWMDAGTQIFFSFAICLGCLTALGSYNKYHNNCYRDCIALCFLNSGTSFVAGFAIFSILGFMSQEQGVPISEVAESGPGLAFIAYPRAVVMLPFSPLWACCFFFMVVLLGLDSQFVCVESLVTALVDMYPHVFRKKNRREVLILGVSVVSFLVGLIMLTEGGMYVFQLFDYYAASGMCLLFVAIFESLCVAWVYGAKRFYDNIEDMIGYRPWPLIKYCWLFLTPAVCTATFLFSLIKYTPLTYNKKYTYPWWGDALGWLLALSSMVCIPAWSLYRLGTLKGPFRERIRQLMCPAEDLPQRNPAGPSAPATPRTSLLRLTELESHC", "assay": "Inhibition of human GAT2 expressed in Flp-In CHO cells assessed as reduction in [3H]GABA uptake incubated for 3 mins by liquid scintillation counting method", "format": "cell-based", "conditions": "not given", "units": {"IC50": "µM"}, "values": [{"smiles": "C[C@@H](C(=O)O)[C@H]1CSC(N)=N1", "note": "(relative stereo)", "IC50": "> 100"}, {"smiles": "CC(C(=O)O)C1CSC(N)=N1", "note": "(stereo in doubt; l-10a)", "IC50": "> 100"}, {"smiles": "NC1=NC(CC(=O)O)CN1", "note": "(centres undefined)", "IC50": 132}, {"smiles": "C[C@H]1SC(N)=N[C@@H]1CC(=O)O", "note": "(relative stereo)", "IC50": "> 100"}, {"smiles": "O=C(O)C[C@@H]1CCNC1", "IC50": 16}, {"smiles": "C[C@@H]1SC(N)=N[C@@H]1CC(=O)O", "note": "(relative stereo)", "IC50": "> 100"}, {"smiles": "O=C(O)C[C@H]1CCNC1", "IC50": 7.3}, {"smiles": "O=C(O)CC1CNC=N1", "note": "(centres undefined)", "IC50": 2.9}, {"smiles": "NC1=NC(CC(=O)O)CS1", "note": "(centres undefined)", "IC50": 79.1}, {"smiles": "C[C@@H](C(=O)O)[C@@H]1CSC(N)=N1", "note": "(relative stereo)", "IC50": "> 100"}, {"smiles": "CC(C(=O)O)C1CSC(N)=N1", "note": "(stereo in doubt; l-10b)", "IC50": "> 100"}]}, {"target": "T3, Sodium- and chloride-dependent GABA transporter 2 (Homo sapiens) (UniProt Q9NSD5)", "T3 sequence (whole entry)": "T2 sequence (Q9NSD5 whole entry)", "assay": "Inhibition of human GAT2 expressed in Flp-In CHO cells assessed as reduction in [3H]GABA uptake at 100 uM incubated for 3 mins by liquid scintillation counting method relative to control", "format": "cell-based", "conditions": "not given", "units": {"inhibition": "%"}, "values": [{"smiles": "C[C@@H](C(=O)O)[C@H]1CSC(N)=N1", "note": "(relative stereo)", "inhibition": "> 30"}, {"smiles": "NC1=NC(CC(=O)O)CN1", "note": "(centres undefined)", "inhibition": "> 30"}, {"smiles": "C[C@H]1SC(N)=N[C@@H]1CC(=O)O", "note": "(relative stereo)", "inhibition": "> 30"}, {"smiles": "O=C(O)C[C@@H]1CCNC1", "inhibition": "> 30"}, {"smiles": "C[C@@H]1SC(N)=N[C@@H]1CC(=O)O", "note": "(relative stereo)", "inhibition": "> 30"}, {"smiles": "O=C(O)C[C@H]1CCNC1", "inhibition": "> 30"}, {"smiles": "O=C(O)CC1CNC=N1", "note": "(centres undefined)", "inhibition": "> 30"}, {"smiles": "NC1=NC(CC(=O)O)CS1", "note": "(centres undefined)", "inhibition": "> 30"}, {"smiles": "C[C@@H](C(=O)O)[C@@H]1CSC(N)=N1", "note": "(relative stereo)", "inhibition": "> 30"}]}, {"target": "Gamma-aminobutyric acid receptor subunit alpha-4/beta-2/gamma-2 (Homo sapiens, UniProt P47870+P18507+P48169)", "sequence (P48169 whole entry, one chain of several)": "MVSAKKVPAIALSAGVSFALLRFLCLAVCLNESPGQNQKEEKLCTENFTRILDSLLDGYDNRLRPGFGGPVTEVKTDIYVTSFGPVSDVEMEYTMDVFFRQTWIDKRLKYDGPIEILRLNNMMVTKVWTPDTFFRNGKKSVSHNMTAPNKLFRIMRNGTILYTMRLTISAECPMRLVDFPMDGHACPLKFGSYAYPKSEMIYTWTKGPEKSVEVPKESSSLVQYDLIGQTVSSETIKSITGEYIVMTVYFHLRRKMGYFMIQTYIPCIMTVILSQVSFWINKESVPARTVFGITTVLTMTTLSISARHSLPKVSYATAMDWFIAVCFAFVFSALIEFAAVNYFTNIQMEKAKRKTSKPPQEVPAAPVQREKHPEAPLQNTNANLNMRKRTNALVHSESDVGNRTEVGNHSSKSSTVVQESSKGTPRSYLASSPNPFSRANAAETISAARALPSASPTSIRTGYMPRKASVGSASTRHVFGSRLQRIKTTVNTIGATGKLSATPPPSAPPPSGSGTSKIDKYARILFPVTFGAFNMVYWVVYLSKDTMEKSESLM", "assay": "Agonist activity at recombinant human GABA-A alpha4beta2gamma2S receptor transiently expressed in human tsA201 cells incubated for 30 mins and measured up to 90 secs by FMP dye based FLIPR membrane potential blue assay", "format": "cell-based", "conditions": "not given", "values": [{"smiles": "C[C@@H](C(=O)O)[C@H]1CSC(N)=N1", "note": "(relative stereo)", "EC50": "Not Active", "pEC50": "inactive"}, {"smiles": "C[C@H]1SC(N)=N[C@@H]1CC(=O)O", "note": "(relative stereo)", "EC50": "Not Active", "pEC50": "inactive"}, {"smiles": "O=C(O)C[C@@H]1CCNC1", "EC50": "Not Active", "pEC50": "inactive"}, {"smiles": "C[C@@H]1SC(N)=N[C@@H]1CC(=O)O", "note": "(relative stereo)", "EC50": "Not Active", "pEC50": "inactive"}, {"smiles": "C[C@@H](C(=O)O)[C@@H]1CSC(N)=N1", "note": "(relative stereo)", "EC50": "Not Active", "pEC50": "inactive"}, {"smiles": "CC(C(=O)O)C1CSC(N)=N1", "note": "(stereo in doubt; l-10b)", "EC50": "Not Active"}]}, {"test_system": "not listed separately", "assay": "cells", "format": "cell-based", "conditions": "Homo sapiens, tsA201, 0.5 h; read-out: EC50", "units": {"EC50": "µM"}, "values": [{"smiles": "C[C@@H](C(=O)O)[C@H]1CSC(N)=N1", "note": "(relative stereo)", "EC50": 17}, {"smiles": "CC(C(=O)O)C1CSC(N)=N1", "note": "(stereo in doubt; l-10a)", "EC50": 30}, {"smiles": "NC1=NC(CC(=O)O)CN1", "note": "(centres undefined)", "EC50": 12}, {"smiles": "C[C@@H]1SC(N)=N[C@@H]1CC(=O)O", "note": "(relative stereo)", "EC50": 54}, {"smiles": "O=C(O)C[C@H]1CCNC1", "EC50": 5.6}, {"smiles": "O=C(O)CC1CNC=N1", "note": "(centres undefined)", "EC50": 5.4}, {"smiles": "NC1=NC(CC(=O)O)CS1", "note": "(centres undefined)", "EC50": 1.1}, {"smiles": "C[C@@H](C(=O)O)[C@@H]1CSC(N)=N1", "note": "(relative stereo)", "EC50": 36}]}, {"test_system": "not listed separately", "assay": "cells", "format": "cell-based", "conditions": "Homo sapiens, tsA201, 0.5 h; read-out: pEC50 (converted)", "units": {"EC50": "µM"}, "values": [{"smiles": "C[C@@H](C(=O)O)[C@H]1CSC(N)=N1", "note": "(relative stereo)", "EC50": 16.6}, {"smiles": "CC(C(=O)O)C1CSC(N)=N1", "note": "(stereo in doubt; l-10a)", "EC50": 30.2}, {"smiles": "NC1=NC(CC(=O)O)CN1", "note": "(centres undefined)", "EC50": 11.5}, {"smiles": "C[C@@H]1SC(N)=N[C@@H]1CC(=O)O", "note": "(relative stereo)", "EC50": 55}, {"smiles": "O=C(O)C[C@H]1CCNC1", "EC50": 5.62}, {"smiles": "O=C(O)CC1CNC=N1", "note": "(centres undefined)", "EC50": 5.37}, {"smiles": "NC1=NC(CC(=O)O)CS1", "note": "(centres undefined)", "EC50": 1.1}, {"smiles": "C[C@@H](C(=O)O)[C@@H]1CSC(N)=N1", "note": "(relative stereo)", "EC50": 35.5}]}]}
